# From BindingDB's records for doi:10.1021/jm050019i (University of Illinois At Chicago, 2005)
# pKi: −log10 of the molar value.
# Target: T1, Dimer of Gag-Pol polyprotein [501-599,Q508K,L534I,L564I,C568A,C596A] (Human immunodeficiency virus 1, UniProt P03367, C568A/C596A/L534I/L564I/Q508K)
# T1 construct: 501-599
# Assay: Protease Inhibition Assay
# Settings: pH 6.4; 25 °C
# Method: The Ki values were determined using fluorogenic substrate, 2-(aminobenzoyl)-Thr-Ile-Nle-Phe(p-NO2)-Gln-ArgNH2. A standard curve relating changes in fluorescent intensity to changes in concentration of product was used to convert fluorescent changes into molar velocities. The amount of cleavage was determined by HPLC.
smiles,measurement,value
"COc1ccc(S(=O)(=O)N(CC(C)C)C[C@@H](O)[C@@H]2CCCC/C=C\COc3c(O)cccc3C(=O)N2)cc1 [(2R)-2-hydroxy-2-[(9S)-15-hydroxy-11-oxo-2,5,6,7,8,9,10,11-octahydro-1,10-benzoxazacyclotridecin-9-yl]-N-(4-methoxyphenyl)-N-(2-methylpropyl)ethane-1-sulfonamido]",pKi,8.70
